Assay results: ChEMBL document CHEMBL5385851, “Natural quinazolinones: From a treasure house to promising anticancer leads” (Eur J Med Chem, 2023)
Values after ≈ are worked out from the molar mass of the structure shown. Values belong to the compound of their own block, whether it stands above or below them.

Experiments:
A549 [1] = experiment: Cytotoxicity against human A549 cells assessed as reduction in cell viability incubated for 72 hrs by MTT assay; type: functional, cell-based; conditions: A549, 72 h
Hs-578T = experiment: Cytotoxicity against human Hs-578T cells assessed as cell growth inhibition; type: functional, cell-based
NCI-H460 [2] = experiment: Cytotoxicity against human NCI-H460 cells assessed as cell growth inhibition; type: functional
U-251 [3] = experiment: Growth inhibition of human U-251 cells incubated for 48 hrs by SRB assay; type: functional
ACHN [4] = experiment: Growth inhibition of human ACHN cells incubated for 48 hrs by SRB assay; type: functional
MGC-803 [5] = experiment: Antiproliferative activity against human MGC-803 cells assessed as reduction in cell viability by MTT assay; type: functional, cell-based
A549 [6] = experiment: Cytotoxicity against human A549 cells assessed as cell growth inhibition; type: functional
786-0 = experiment: Cytotoxicity against human 786-0 cells assessed as cell growth inhibition; type: functional
MGC-803 [7] = experiment: Cytotoxicity against human MGC-803 assessed as inhibition of cell growth by MTT assay; type: functional, cell-based
DU-145 = experiment: Cytotoxicity against human DU-145 cells assessed as cell growth inhibition; type: functional
U-251 [8] = experiment: Cytotoxicity against human U-251 cells assessed as cell growth inhibition; type: functional
MCF7 = experiment: Cytotoxicity against human MCF7 cells assessed as reduction in cell growth; type: functional, cell-based
SF-268 = experiment: Antiproliferative activity against human SF-268 cells assessed as reduction in cell growth incubated for 48 hrs by SRB assay; type: functional, cell-based; conditions: SF-268, 48 h
NCI-H460 [9] = experiment: Cytotoxicity against human NCI-H460 cells assessed reduction in cell viability; type: functional, cell-based
ACHN [10] = experiment: Growth inhibition of human ACHN cells; type: functional
L1210 = experiment: Antiproliferative activity against mouse L1210 cells assessed as cell growth inhibition measured after 72 hrs by MTT assay; type: functional, cell-based; conditions: L1210, 72 h
HL-60 = experiment: Cytotoxicity against human HL-60 cells assessed as cell growth inhibition by MTT assay; type: functional

Compound: O=c1c2ccccc2nc2n1C(O)c1cc3ccccc3nc1-2 (configuration not stated)
IC50 (A549 [1]): 9 µg/mL (≈ 29.9 µM)

Compound: COC1c2cc3ccccc3nc2-c2nc3ccccc3c(=O)n21 (configuration not stated)
IC50 (Hs-578T): 9 µg/mL (≈ 28.5 µM)

Compound: O=c1c2ccccc2nc2n1CCc1c-2[nH]c2ccc(Br)cc12
GI50 (NCI-H460 [2]): 1550 nM

GI50 (U-251 [3]): 300 nM | GI50 (ACHN [4]): 400 nM
Compound: CN1c2ccccc2C(=O)N2CCc3c([nH]c4ccc(Br)cc34)C21 (configuration not stated)

IC50 (MGC-803 [5]): 94500 nM
Compound: O=c1c2ccccc2nc2n1CC[C@@H]2O

Compound: COc1ccc2c3c([nH]c2c1)-c1nc2ccccc2c(=O)n1CC3
GI50 (A549 [6]): 750 nM | GI50 (786-0): 310 nM

Compound: O=c1c2ccccc2nc2n1CC[C@@H]2O[C@@H]1O[C@H](CO)[C@@H](O)[C@H](O)[C@H]1O
IC50 (MGC-803 [7]): 84100 nM

Compound: O=C1c2ccccc2NC2c3[nH]c4ccccc4c3CCN12 (configuration not stated)
GI50 (DU-145): 200 nM | GI50 (U-251 [8]): 20 nM

Compound: CC(=O)C[C@]1(O)c2ccccc2-n2c1nc1ccccc1c2=O
IC50 (MCF7): 33800 nM | IC50 (SF-268): 43900 nM | IC50 (NCI-H460 [9]): 27000 nM

GI50 (ACHN [10]): 80 nM
Compound: CSc1ccc2[nH]c3c(c2c1)CCN1C(=O)c2ccccc2NC31 (configuration not stated)

IC50 (L1210): 130 nM
Compound: O=c1c2ccccc2nc2n1Cc1cc3cccnc3nc1-2

Compound: O=c1c2ccccc2nc2n1CCc1c-2[nH]c2c(Cl)c(Cl)ccc12
GI50 (HL-60): 150 nM
